Consider 25 compounds from patent US20110117081A1, “FUNCTIONALIZED PYRROLIDINES AND USE THEREOF AS IAP INHIBITORS” (priority 2008, published 2011).

pEC50: −log10 of the molar value.

In one assay the test system is Colorectal carcinoma HCT116 cells. As to the kind of experiment: HCT116 + ETR1 cell viability assay (MTT). The class given is cell-based. To be noted: with ETR1 (40 ng/ml), 72 hrs. Here is the method: Colorectal carcinoma HCT116 cells (ATCC# CCL-247) were cultured as monolayers in 96 well plates at a density of 2000 cells per well in 100 ul of McCoy's 5a medium (HyClone) supplemented with 2.2 g/L sodium bicarbonate (Gibco), 10% FBS (HyClone) and 1% penecillin/streptomycin (HyClone) for 24 hours. Triplicate wells of cells were treated for 72 hrs at 37° C. (5% CO2) with 50 ul of HGS agonistic Trail receptor antibody, ETR1 (40 ng/ml) in combination with 50 ul of diluted compound (0.01 to 10000 nM). Metabolic viability of remaining cells was assessed by MTT assay.
(§1) The percentage viability of compound-treated cells was expressed as a fraction of the absorbance/luminescence signal obtained from non-treated cells. EC50 values (corresponding to 50% cell survival in the presence of compound as compared to untreated controls) were calculated from MTT survival curves (HCT116 and SKOV3) using BioAssay software (CambridgeSoft) and from Cell Titer-Glo survival curves (synovioycte and Jurkat cells) using GraphPad Prism (Graph Pad Software Inc.). In the below chart, EC50 values are summarized as follows: a=EC50 of less than 10 nM; b=EC50 of 10-100 nM; and c=EC50 of greater than 100 nM.
What is called pEC50 is −log10 of the EC50, conventionally taken in molar units. Turning to `CN[C@@H](C)C(=O)N[C@H](C(=O)N1C[C@@H](NC(=O)C2CCC(C(=O)N[C@H]3C[C@@H](C(=O)NC4c5ccccc5-c5ccccc54)N(C(=O)[C@@H](NC(=O)[C@H](C)NC)C4CCCCC4)C3)CC2)C[C@H]1C(=O)NC1c2ccccc2-c2ccccc21)C1CCCCC1` (some centres unmarked) [Compound 2], the pEC50 was above 8.00.
On the same count and under the same terms, for `CN[C@@H](C)C(=O)N[C@H](C(=O)N1C[C@@H](NC(=O)c2ccc(C(=O)N[C@H]3C[C@@H](C(=O)N[C@@H]4CCCc5ccc(F)cc54)N(C(=O)[C@@H](NC(=O)[C@H](C)NC)C4CCCCC4)C3)cc2)C[C@H]1C(=O)N[C@@H]1CCCc2ccc(F)cc21)C1CCCCC1` [Compound 33] the value was above 8.00.
On to `CN[C@@H](C)C(=O)N[C@H](C(=O)N1C[C@@H](NC(=O)c2ccc(C(=O)N[C@H]3C[C@@H](C(=O)N[C@H](C)c4ccc(OC)cc4)N(C(=O)[C@@H](NC(=O)[C@H](C)NC)C4CCCCC4)C3)cc2)C[C@H]1C(=O)N[C@H](C)c1ccc(OC)cc1)C1CCCCC1` [Compound 34], for which the pEC50 is above 8.00.
For `CN[C@@H](C)C(=O)N[C@H](C(=O)N1C[C@@H](NC(=O)c2ccc(C(=O)N[C@H]3C[C@@H](C(=O)N4CCc5ccccc5C4)N(C(=O)[C@@H](NC(=O)[C@H](C)NC)C4CCCCC4)C3)cc2)C[C@H]1C(=O)N1CCc2ccccc2C1)C1CCCCC1` [Compound 35], the pEC50 was 7.00 to 8.00.
Consider `CN[C@@H](C)C(=O)N[C@H](C(=O)N1C[C@@H](NC(=O)c2ccc(C(=O)N[C@H]3C[C@@H](C(=O)N[C@@H]4CCOc5cc(F)ccc54)N(C(=O)[C@@H](NC(=O)[C@H](C)NC)C4CCCCC4)C3)cc2)C[C@H]1C(=O)N[C@@H]1CCOc2cc(F)ccc21)C1CCCCC1` [Compound 36], for which the negative logarithm of the EC50 (pEC50) was above 8.00.
As for `CN[C@@H](C)C(=O)N[C@H](C(=O)N1C[C@@H](NC(=O)c2ccc(C(=O)N[C@H]3C[C@@H](C(=O)NC(C)(C)c4ccccc4)N(C(=O)[C@@H](NC(=O)[C@H](C)NC)C4CCCCC4)C3)cc2)C[C@H]1C(=O)NC(C)(C)c1ccccc1)C1CCCCC1` [Compound 37], the pEC50 is above 8.00.
In the case of `CN[C@@H](C)C(=O)N[C@H](C(=O)N1C[C@@H](NC(=O)c2ccc(C(=O)N[C@H]3C[C@@H](C(=O)NCc4ccc(F)cc4)N(C(=O)[C@@H](NC(=O)[C@H](C)NC)C4CCCCC4)C3)cc2)C[C@H]1C(=O)NCc1ccc(F)cc1)C1CCCCC1` [Compound 38], the pEC50 is above 8.00.
On to `CN[C@@H](C)C(=O)N[C@H](C(=O)N1C[C@@H](NC(=O)c2ccc(C(=O)N[C@H]3C[C@@H](C(=O)N4CC[C@H](c5ccccc5)C4)N(C(=O)[C@@H](NC(=O)[C@H](C)NC)C4CCCCC4)C3)cc2)C[C@H]1C(=O)N1CC[C@H](c2ccccc2)C1)C1CCCCC1` [Compound 39], for which the pEC50 is 7.00 to 8.00.
For `CN[C@@H](C)C(=O)N[C@H](C(=O)N1C[C@@H](NC(=O)c2ccc(C(=O)N[C@H]3C[C@@H](C(=O)N[C@@H]4CCCc5cc(F)ccc54)N(C(=O)[C@@H](NC(=O)[C@H](C)NC)C4CCCCC4)C3)cc2)C[C@H]1C(=O)N[C@@H]1CCCc2cc(F)ccc21)C1CCCCC1` [Compound 40], the negative-log EC50 (pEC50) is above 8.00.
`CN[C@@H](C)C(=O)N[C@H](C(=O)N1C[C@@H](NC(=O)c2ccc(C(=O)N[C@H]3C[C@@H](C(=O)N[C@H](C)c4ccc(F)cc4)N(C(=O)[C@@H](NC(=O)[C@H](C)NC)C4CCOCC4)C3)cc2)C[C@H]1C(=O)N[C@H](C)c1ccc(F)cc1)C1CCOCC1` [Compound 42]: the negative-log EC50 (pEC50) is 7.00 to 8.00.
Same read-out and setting: for `CN[C@@H](C)C(=O)N[C@H](C(=O)N1C[C@@H](NC(=O)c2ccc(C(=O)N[C@H]3C[C@@H](C(=O)N[C@@H]4CCCc5ccccc54)N(C(=O)[C@@H](NC(=O)[C@H](C)NC)C4CCCC4)C3)cc2)C[C@H]1C(=O)N[C@@H]1CCCc2ccccc21)C1CCCC1` [Compound 43] the value was above 8.00.
`CN[C@@H](C)C(=O)N[C@H](C(=O)N1C[C@@H](NC(=O)c2ccc(C(=O)N[C@H]3C[C@@H](C(=O)N[C@@H]4CCCc5ccccc54)N(C(=O)[C@@H](NC(=O)[C@H](C)NC)C4CCC4)C3)cc2)C[C@H]1C(=O)N[C@@H]1CCCc2ccccc21)C1CCC1` [Compound 44]: the pEC50 was above 8.00.
As to `CN[C@@H](C)C(=O)N[C@H](C(=O)N1C[C@@H](NC(=O)c2ccc(C(=O)N[C@H]3C[C@@H](C(=O)Nc4ccccc4-c4ncccn4)N(C(=O)[C@@H](NC(=O)[C@H](C)NC)C4CCCCC4)C3)cc2)C[C@H]1C(=O)Nc1ccccc1-c1ncccn1)C1CCCCC1` [Compound 45], the negative logarithm of the EC50 (pEC50) was 7.00 to 8.00.
Take `CN[C@@H](C)C(=O)N[C@H](C(=O)N1C[C@@H](NC(=O)c2ccc(C(=O)N[C@H]3C[C@@H](C(=O)N[C@@H]4CCCc5ccccc54)N(C(=O)[C@@H](NC(=O)[C@H](C)NC)C4CCOCC4)C3)cc2)C[C@H]1C(=O)N[C@@H]1CCCc2ccccc21)C1CCOCC1` [Compound 46]: the pEC50 is 7.00 to 8.00.
For the compound `CN[C@@H](C)C(=O)N[C@H](C(=O)N1C[C@@H](NC(=O)c2ccc(C(=O)N[C@H]3C[C@@H](C(=O)Nc4ccccc4)N(C(=O)[C@@H](NC(=O)[C@H](C)NC)C4CCCCC4)C3)cc2)C[C@H]1C(=O)Nc1ccccc1)C1CCCCC1` [Compound 47], the pEC50 is above 8.00.
Consider `CN[C@@H](C)C(=O)N[C@H](C(=O)N1C[C@@H](NC(=O)c2ccc(C(=O)N[C@H]3C[C@@H](C(=O)N(C)[C@H](C)c4ccccc4)N(C(=O)[C@@H](NC(=O)[C@H](C)NC)C4CCCCC4)C3)cc2)C[C@H]1C(=O)N(C)[C@H](C)c1ccccc1)C1CCCCC1` [Compound 48], for which the negative logarithm of the EC50 (pEC50) is 7.00 to 8.00.
As to `CN[C@@H](C)C(=O)N[C@H](C(=O)N1C[C@@H](NC(=O)c2ccc(C(=O)N[C@H]3C[C@@H](C(=O)Nc4cc(C)nn4-c4ccccc4)N(C(=O)[C@@H](NC(=O)[C@H](C)NC)C4CCCCC4)C3)cc2)C[C@H]1C(=O)Nc1cc(C)nn1-c1ccccc1)C1CCCCC1` [Compound 49], the pEC50 is 7.00 to 8.00.
`CN[C@H](C(=O)N[C@H](C(=O)N1C[C@@H](NC(=O)c2ccc(C(=O)N[C@H]3C[C@@H](C(=O)N[C@@H]4CCCc5ccccc54)N(C(=O)[C@@H](NC(=O)[C@@H](NC)C4CC4)C4CCCCC4)C3)cc2)C[C@H]1C(=O)N[C@@H]1CCCc2ccccc21)C1CCCCC1)C1CC1` [Compound 50]: the negative logarithm of the EC50 (pEC50) is 7.00 to 8.00.
The same measure, in the same setting: to `CN[C@@H](C)C(=O)N[C@H](C(=O)N1C[C@@H](NC(=O)c2ccc(C(=O)N[C@H]3C[C@@H](C(=O)Nc4ccccc4-c4ccccc4)N(C(=O)[C@@H](NC(=O)[C@H](C)NC)C4CCCCC4)C3)cc2)C[C@H]1C(=O)Nc1ccccc1-c1ccccc1)C1CCCCC1` [Compound 52] belongs above 8.00; to `CCN[C@@H](C)C(=O)N[C@H](C(=O)N1C[C@@H](NC(=O)c2ccc(C(=O)N[C@H]3C[C@@H](C(=O)N[C@@H]4CCCc5ccccc54)N(C(=O)[C@@H](NC(=O)[C@H](C)NCC)C4CCCCC4)C3)cc2)C[C@H]1C(=O)N[C@@H]1CCCc2ccccc21)C1CCCCC1` [Compound 53], above 8.00; to `CN[C@@H](C)C(=O)N[C@H](C(=O)N1C[C@@H](NC(=O)c2cnc(C(=O)N[C@H]3C[C@@H](C(=O)N[C@@H]4CCOc5ccccc54)N(C(=O)[C@@H](NC(=O)[C@H](C)NC)C4CCCCC4)C3)cn2)C[C@H]1C(=O)N[C@@H]1CCOc2ccccc21)C1CCCCC1` [Compound 54], above 8.00.
Turning to `CN[C@@H](C)C(=O)N[C@H](C(=O)N1C[C@@H](NC(=O)c2cnc(C(=O)N[C@H]3C[C@@H](C(=O)N[C@@H]4CCCc5ccccc54)N(C(=O)[C@@H](NC(=O)[C@H](C)NC)C4CCCCC4)C3)cn2)C[C@H]1C(=O)N[C@@H]1CCCc2ccccc21)C1CCCCC1` [Compound 55], the negative logarithm of the EC50 (pEC50) is above 8.00.
Consider `CCCN[C@@H](C)C(=O)N[C@H](C(=O)N1C[C@@H](NC(=O)c2ccc(C(=O)N[C@H]3C[C@@H](C(=O)N[C@@H]4CCCc5ccccc54)N(C(=O)[C@@H](NC(=O)[C@H](C)NCCC)C4CCCCC4)C3)cc2)C[C@H]1C(=O)N[C@@H]1CCCc2ccccc21)C1CCCCC1` [Compound 56], for which the negative-log EC50 (pEC50) is above 8.00.
Turning to `CN[C@@H](C)C(=O)N[C@H](C(=O)N1C[C@@H](NC(=O)c2ccc(C(=O)N[C@H]3C[C@@H](C(=O)N[C@H]4CCCc5ccccc54)N(C(=O)[C@@H](NC(=O)[C@H](C)NC)C4CCCCC4)C3)cc2)C[C@H]1C(=O)N[C@H]1CCCc2ccccc21)C1CCCCC1` [Compound 57], the negative logarithm of the EC50 (pEC50) was 7.00 to 8.00.
Consider `CN[C@@H](C)C(=O)N[C@H](C(=O)N1C[C@@H](NC(=O)c2ccc(C(=O)N[C@H]3C[C@@H](C(=O)N[C@H]4CCOc5ccccc54)N(C(=O)[C@@H](NC(=O)[C@H](C)NC)C4CCCCC4)C3)cc2)C[C@H]1C(=O)N[C@H]1CCOc2ccccc21)C1CCCCC1` [Compound 58], for which the pEC50 is 7.00 to 8.00.

Another assay deals with Ovarian adenocarcinoma SKOV3 cells. Kind of assay: SKOV3 cell viability assay (MTT). Conditions: Homo sapiens, SK-OV-3, 72 hours. In kind it is cell-based. The protocol: Ovarian adenocarcinoma SKOV3 cells (ATCC# HTB-77) were cultured as monolayers in McCoy's 5a medium (HyClone) supplemented with 2.2 g/L sodium bicarbonate (Gibco), 10% FBS (HyClone) and 1% penicillin/streptomycin (HyClone). Cells were seeded in tissue culture-treated 96 well plates at 5000 cells/well in 150 ul of media. After 24 hours, triplicate wells of cells were treated with various concentrations of compound (0.01 to 10000 nM) diluted in 50 ul of culture media. Cells were incubated at 37° C. (5% CO2) in the presence of compound for 72 hours. Metabolic viability of remaining cells was assessed by MTT (thiazolyl blue tetrazolium bromide, Sigma) assay. 20 ul of MTT reagent (10 mg/ml) was added per well and plates were incubated for 4 hours at 37° C. (5% CO2). The supernatant was then removed from the plate. The converted MTT product was solubilized with 100 uL of isopropanol and the absorbance was read at 570 nm using a Tecan spectrophotometer.
as §1
In turn, `CN[C@@H](C)C(=O)N[C@H](C(=O)N1C[C@@H](NC(=O)C2CCC(C(=O)N[C@H]3C[C@@H](C(=O)NC4c5ccccc5-c5ccccc54)N(C(=O)[C@@H](NC(=O)[C@H](C)NC)C4CCCCC4)C3)CC2)C[C@H]1C(=O)NC1c2ccccc2-c2ccccc21)C1CCCCC1` (some centres unmarked) [Compound 2] had a pEC50 of 7.00 to 8.00.
